Measurements from patent publication US10662204B2 (PFIZER INC., priority 2018, dated 2020).

Tests used:
[1] = molecular target: KRAS G12C (Homo sapiens, UniProt P01116, G12C); assay: Cell Activity Assay: accumulation of GDP-bound KRAS G12C in MIAPaCa-2 cells (Raf-1 RBD capture, MSD readout); assay type: cell-based; design: endogenous in cells; host or cells: MIAPaCa-2; conditions: 6 hours, assay limit is 30.00
Summary of the method: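 IC50 came from a 4-parameter fit of Ras signal normalized between DMSO and full-inhibition controls. Readout: lysate GTP-Ras bound to immobilized Raf-1 RBD, quantified with pan-Ras antibody and MSD electrochemiluminescence. Lysates derived from MIAPaCa-2 cells treated 6 h with serially diluted compound, 0.3% DMSO.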

[2] = molecular target: T1, GDP-loaded KRAS (1-169) G12C, C51S, C80L, C118S (Homo sapiens, UniProt P01116, C118S/C51S/C80L/G12C); assay: Mass Spectrometry Reactivity Assay (MSRA): covalent adduct of compound and KRAS G12C, Percent Modification; assay type: binding; conditions: for MSRA (% modification) 5.0 μM 0.25 hr: 5.0 μM compound; for MSRA (% modification) 10 μM 0.50 hr / MSRA (% modification) 10 μM 0.25 hr: 10 μM compound
T1 construct: GDP-loaded KRAS (1-169) G12C, C51S, C80L, C118S
Summary of the method: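 Covalent labelling is measured by intact mass: deconvoluted modified and unmodified peak intensities yield percent modification. Compound, usually 5 μM or 10 μM final, reacts at room temperature with 5 μM GDP-bound KRAS G12C (1-169, C51S/C80L/C118S) in Hepes pH 7.5/NaCl/glycerol, sampled at 1, 15, 30, 60 min.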

## C=CC(=O)N1CCN(c2nc(O[C@H]3CN(C)C[C@@H]3OC)nc3c(Oc4c(Cl)c(F)cc5[nH]ncc45)nccc23)CC1 [Example 11I, 1-[4-(8-[(5-chloro-6-fluoro-1H-indazol-4-yl)oxy]-2-{[(3S,4S)-4-methoxy-1-methyl-pyrrolidin-3-yl]oxy}pyrido [3,4-d]pyrimidin-4-yl)piperazin-1-yl]prop-2-en-1-one]
[1]
  IC50: 0.321 µM
[2]
  MSRA (% modification) 5.0 μM 0.25 hr: 32%

## C=CC(=O)N1CCN(c2ncnc3c(Oc4c(C)c(C)cc5[nH]ncc45)nccc23)CC1 [Example 12A, 1-(4-{8-[(5,6-dimethyl-1H-indazol-4-yl)oxy]pyrido[3,4-d]pyrimidin-4-yl}piperazin-1-yl)prop-2-en-1-one]
[1]
  IC50: 2.95 µM
[2]
  MSRA (% modification) 10 μM 0.50 hr: 38%

## C=CC(=O)N1CCN(c2nc(OCCN3CCCC3)nc3c(Oc4c(C)ccc5[nH]ncc45)nccc23)CC1 [Example 12B, 1-(4-{8-[(5-methyl-1H-indazol-4-yl)oxy]-2-[2-(pyrrolidin-1-yl)ethoxy]pyrido[3,4-d]pyrimidin-4-yl}piperazin-1-yl)prop-2-en-1-one]
[1]
  IC50: 5.45 µM
[2]
  MSRA (% modification) 10 μM 0.25 hr: 21%

## C=CC(=O)N1CCN(c2ncnc3c(Oc4c(C)ccc5[nH]ncc45)cc(Cl)cc23)CC1 [Example 12C, 1-(4-{6-chloro-8-[(5-methyl-1H-indazol-4-yl)oxy]quinazolin-4-yl}piperazin-1-yl)prop-2-en-1-one]
[1]
  IC50: 3.91 µM
[2]
  MSRA (% modification) 10 μM 0.50 hr: 34%

## C=CC(=O)N1CCN(c2nc(OCCCN(C)C)nc3c(Oc4c(Cl)c(C)cc5[nH]ncc45)cc(Cl)cc23)CC1 [Example 12E, 1-(4-{6-chloro-8-[(5-chloro-6-methyl-1H-indazol-4-yl)oxy]-2-[3-(dimethylamino)propoxy]quinazolin-4-yl}piperazin-1-yl)prop-2-en-1-one]
[1]
  IC50: 0.835 µM
[2]
  MSRA (% modification) 10 μM 0.50 hr: 79%

## C=CC(=O)N1CCN(c2nc(NCC3CCC(=O)N3)nc3c(Oc4c(C)ccc5[nH]ncc45)cccc23)CC1 (centres unmarked) [Example 12F, 5-[({4-(4-acryloylpiperazin-1-yl)-8-[(5-methyl-1H-indazol-4-yl)oxy]quinazolin-2-yl}amino)methyl]pyrrolidin-2-one]
[1]
  IC50: 29.1 µM
[2]
  MSRA (% modification) 10 μM 0.50 hr: 20%

## C=CC(=O)N1CCN(c2nc(OCC3CCOC3)nc3c(Oc4c(Cl)c(F)cc5[nH]ncc45)nc(Cl)cc23)CC1 (centres unmarked) [Example 12G, 1-(4-{6-chloro-8-[(5-chloro-6-fluoro-1H-indazol-4-yl)oxy]-2-(tetrahydrofuran-3-ylmethoxy)pyrido[3,4-d]pyrimidin-4-yl}piperazin-1-yl)prop-2-en-1-one]
[1]
  IC50: 0.071 µM
[2]
  MSRA (% modification) 10 μM 0.25 hr: 75%

## C=CC(=O)N1CCN(c2nc(OC[C@@H]3C[C@H](OC)CN3C)nc3c(Oc4c(Cl)c(F)cc5[nH]ncc45)nccc23)CC1 [Example 12H, 1-[4-(8-[(5-chloro-6-fluoro-1H-indazol-4-yl)oxy]-2-{[(2S,4S)-4-methoxy-1-methylpyrrolidin-2-yl]methoxy}pyrido[3,4-d]pyrimidin-4-yl)piperazin-1-yl]prop-2-en-1-one]
[1]
  IC50: 0.691 µM
[2]
  MSRA (% modification) 5.0 μM 0.25 hr: 49%
  MSRA (% modification) 10 μM 0.25 hr: 67%

## C=CC(=O)N1CCN(c2nc(OCC3(F)CCN(C)CC3)nc3c(Oc4c(Cl)c(F)cc5[nH]ncc45)nccc23)CC1 [Example 12I, 1-(4-{8-[(5-chloro-6-fluoro-1H-indazol-4-yl)oxy]-2-[(4-fluoro-1-methyl-piperidin-4-yl)methoxy]pyrido [3,4-d]pyrimidin-4-yl}piperazin-1-yl)prop-2-en-1-one]
[1]
  IC50: 0.12 µM
[2]
  MSRA (% modification) 5.0 μM 0.25 hr: 78%

## C=CC(=O)N1CCN(c2ncnc3c(Oc4c(Br)c(C)cc5[nH]ncc45)nccc23)CC1 [Example 13A, 1-(4-{8-[(5-bromo-6-methyl-1H-indazol-4-yl)oxy]pyrido[3,4-d]pyrimidin-4-yl}piperazin-1-yl)prop-2-en-1-one]
[1]
  IC50: 0.394 µM
[2]
  MSRA (% modification) 10 μM 0.25 hr: 44%
  MSRA (% modification) 10 μM 0.50 hr: 69%

## C=CC(=O)N1CCN(c2nc(OC[C@@H]3CCCN3C)nc3c(Oc4c(C)c(Cl)cc5[nH]ncc45)nccc23)CC1 [Example 13B, 1-[4-(8-[(6-chloro-5-methyl-1H-indazol-4-yl)oxy]-2-{[(2S)-1-methylpyrrolidin-2-yl]methoxy}pyrido[3,4-d]pyrimidin-4-yl)piperazin-1-yl]prop-2-en-1-one]
[1]
  IC50: 0.16 µM
[2]
  MSRA (% modification) 5.0 μM 0.25 hr: 19%
  MSRA (% modification) 10 μM 0.25 hr: 74%

## C=CC(=O)N1CCN(c2ncnc3c(Oc4c(C)ccc5[nH]ncc45)cc(Br)cc23)CC1 [Example 13C, 1-(4-{6-bromo-8-[(5-methyl-1H-indazol-4-yl)oxy]quinazolin-4-yl}piperazin-1-yl)prop-2-en-1-one]
[1]
  IC50: 3.74 µM
[2]
  MSRA (% modification) 10 μM 0.50 hr: 36%

## C=CC(=O)N1CCN(c2nc(OCCN(C)C)nc3c(Oc4c(Cl)c(C)cc5[nH]ncc45)cc(Cl)cc23)CC1 [Example 13E, 1-(4-{6-chloro-8-[(5-chloro-6-methyl-1H-indazol-4-yl)oxy]-2-[2-(dimethylamino)ethoxy]quinazolin-4-yl}piperazin-1-yl)prop-2-en-1-one]
[1]
  IC50: 0.452 µM
[2]
  MSRA (% modification) 10 μM 0.25 hr: 75%
  MSRA (% modification) 10 μM 0.50 hr: 79%

## C=CC(=O)N1CCN(c2nc(NCCC(=O)NC)nc3c(Oc4c(C)ccc5[nH]ncc45)cccc23)CC1 [Example 13F, N^3-{4-(4-acryloylpiperazin-1-yl)-8-[(5-methyl-1H-indazol-4-yl)oxy]quinazolin-2-yl}-N-methyl-β-alaninamide]
[1]
  IC50: 17 µM
[2]
  MSRA (% modification) 10 μM 0.50 hr: 26%

## C=CC(=O)N1CCN(c2nc(OCC(C)(C)O)nc3c(Oc4c(Cl)c(F)cc5[nH]ncc45)nc(Cl)cc23)CC1 [Example 13G, 1-(4-{6-chloro-8-[(5-chloro-6-fluoro-1H-indazol-4-yl)oxy]-2-(2-hydroxy-2-methylpropoxy)pyrido[3,4-d]pyrimidin-4-yl}piperazin-1-yl)prop-2-en-1-one]
[1]
  IC50: 0.16 µM
[2]
  MSRA (% modification) 5.0 μM 0.25 hr: 70%
  MSRA (% modification) 10 μM 0.25 hr: 78%
  MSRA (% modification) 10 μM 0.50 hr: 80%

## C=CC(=O)N1CCN(c2nc(OC[C@@H]3C[C@@H](OC)CN3C)nc3c(Oc4c(Cl)c(F)cc5[nH]ncc45)nccc23)CC1 [Example 13H, 1-[4-(8-[(5-chloro-6-fluoro-1H-indazol-4-yl)oxy]-2-{[(2S,4R)-4-methoxy-1-methylpyrrolidin-2-yl]methoxy}pyrido[3,4-d]pyrimidin-4-yl)piperazin-1-yl]prop-2-en-1-one]
[1]
  IC50: 0.311 µM
[2]
  MSRA (% modification) 5.0 μM 0.25 hr: 65%
  MSRA (% modification) 10 μM 0.25 hr: 83%

## C=CC(=O)N1CCN(c2nc(Oc3cccnc3)nc3c(Oc4c(Cl)c(F)cc5[nH]ncc45)nccc23)CC1 [Example 13I, 1-(4-{8-[(5-chloro-6-fluoro-1H-indazol-4-yl)oxy]-2-(pyridin-3-yloxy)pyrido [3,4-d]pyrimidin-4-yl}piperazin-1-yl)prop-2-en-1-one]
[1]
  IC50: 0.777 µM
[2]
  MSRA (% modification) 5.0 μM 0.25 hr: 44%

## C=CC(=O)N1CCN(c2ncnc3c(Oc4c(C)c(Cl)cc5[nH]ncc45)nccc23)CC1 [Example 14A, 1-(4-{8-[(6-chloro-5-methyl-1H-indazol-4-yl)oxy]pyrido[3,4-d]pyrimidin-4-yl}piperazin-1-yl)prop-2-en-1-one]
[1]
  IC50: 0.545 µM
[2]
  MSRA (% modification) 5.0 μM 0.25 hr: 46%
  MSRA (% modification) 10 μM 0.50 hr: 67%

## C=CC(=O)N1CCN(c2ncnc3c(Oc4c(C)ccc5[nH]ncc45)cc(C#N)cc23)CC1 [Example 14C]
[1]
  IC50: 27.8 µM
[2]
  MSRA (% modification) 10 μM 0.50 hr: 20%

## C=CC(=O)N1CCN(c2nc(N3CC(N(C)C)C3)nc3c(Oc4c(Cl)c(C)cc5[nH]ncc45)cccc23)CC1 [Example 14E, 1-(4-{8-[(5-chloro-6-methyl-1H-indazol-4-yl)oxy]-2-[3-(dimethylamino)azetidin-1-yl]quinazolin-4-yl}piperazin-1-yl)prop-2-en-1-one]
[1]
  IC50: 1.01 µM
[2]
  MSRA (% modification) 10 μM 0.50 hr: 65%

## C=CC(=O)N1CCN(c2nc(N(C)CCC(=O)NC)nc3c(Oc4c(C)ccc5[nH]ncc45)cccc23)CC1 [Example 14F, N^3-{4-(4-acryloylpiperazin-1-yl)-8-[(5-methyl-1H-indazol-4-yl)oxy]quinazolin-2-yl}-N,N^3-dimethyl-β-alaninamide]
[1]
  IC50: 29 µM
[2]
  MSRA (% modification) 10 μM 0.50 hr: 12%

## C=CC(=O)N1CCN(c2nc(OCC3CCC(=O)N3C)nc3c(Oc4c(Cl)c(F)cc5[nH]ncc45)nc(Cl)cc23)CC1 (centres unmarked) [Example 14G, 5-[({4-(4-acryloylpiperazin-1-yl)-6-chloro-8-[(5-chloro-6-fluoro-1H-indazol-4-yl)oxy]pyrido[3,4-d]pyrimidin-2-yl}oxy)methyl]-1-methylpyrrolidin-2-one]
[1]
  IC50: 0.401 µM
[2]
  MSRA (% modification) 5.0 μM 0.25 hr: 78%
  MSRA (% modification) 10 μM 0.25 hr: 79%
